Experimental findings from US20110190235A1, “BORON-CONTAINING SMALL MOLECULES AS ANTIPROTOZOAL AGENTS” (Anacor Pharmaceuticals, Inc., priority 2009, published 2011) are described below.

As usually defined, the IC50 is the concentration that inhibits the measured activity by half.

The subject of data set [1] is bloodstream-form trypanosome T. brucei brucei 427 strain. In words: Trypanosoma brucei brucei high-throughput in vitro drug sensitivity assay (resazurin). The class given is cell-based. To be noted: for Selectivity Index (L929 IC50 / T. b. brucei IC50): T. b. brucei vs L929; for IC50: Trypanosoma brucei, 72 hrs incubation. In general terms: The colour change of resazurin is a common sign of viable cells or microbes.

A short description of data set [2]: L929 cytotoxicity evaluation (resazurin). The class given is cell-based. To be noted: mouse, L929 mouse fibroblast cells; 72 hrs incubation; read-out: Cytotox L-929 IC50. Here is the method:
For evaluation of compound effects on mammalian cells, L929 mouse fibroblast cells were used. Cells were maintained as adherent cultures in T-25 vented cap flasks in a humidified incubator at 37° C. in the presence of 5% CO2. Culture media was D-MEM supplemented with 10% fetal bovine serum and 1% penicillin/streptomycin. L929 cells were maintained below confluent levels by sub-culturing at 1:10 dilution twice weekly using 0.05% trypsin for detachment.
Sub-confluent L929 cells were trypsinized, resuspended in fresh media and 10 uL was counted using hemocytometer to determine cell concentration. Cells were diluted to 1×10^4/mL in DMEM, dispensed (100 uL) into 96-well plates using a Multidrop 384 dispenser and allowed to attach overnight. Spent media was replaced with 99.5 uL fresh D-MEM and compounds to be tested were serially diluted in DMSO and 0.5 uL added using a Biomek NX liquid handler. Plates were incubated with compounds for 72 hrs at 37° C. with 5% CO2. Resazurin (20 uL of 12.5 mg/ml stock) from Sigma-Aldrich was added to each well and plates were incubated for an additional 3-4 hrs. Assay plates were read using an EnVision plate reader at an excitation wavelength of 544 nm and emission of 590 nm. Single data points were used to generate sigmoidal dose response curves and determine IC50 values using XLfit curve fitting software from IDBS (Guildford, UK).

In brackets after ≈: the same amount, converted by molar mass. Like-named read-outs stand apart in the source and are kept apart here.

On to `COc1cccc(C(=O)Nc2ccc3c(c2)B(O)OC3C)c1` (stereo not shown) [compound 6, N-(1-Hydroxy-3-methyl-1,3-dihydro-benzo[c][1,2]oxaborol-6-yl)-3-methoxy-benzamide], for which the “Selectivity Index (L929 IC50 / T. b. brucei IC50)” value in data set [1] is greater than 217. The IC50 came out at 155 nM in data set [1] (read-out: T. b. brucei IC50) and 0.046 µg/mL in data set [1] (read-out: T.b. brucei IC50). Moreover, in data set [2], the half-maximal inhibitory concentration (IC50) at 72 h was greater than 10 µg/mL.

As to `CC1OB(O)c2cc(NC(=O)c3cccc(F)c3)ccc21` (stereo not shown) [compound 10, 3-Fluoro-N-(1-hydroxy-3-methyl-1,3-dihydro-benzo[c][1,2]oxaborol-6-yl)-benzamide], the “Selectivity Index (L929 IC50 / T. b. brucei IC50)” value in data set [1] is on record as greater than 207. Further, the IC50 in data set [1] (read-out: T. b. brucei IC50) was determined as 130 nM; in data set [1] (read-out: T.b. brucei IC50), 0.037 µg/mL. In data set [2], the IC50 at 72 h is greater than 10 µg/mL.

Take `CC1OB(O)c2cc(NC(=O)c3cccc(Cl)c3)ccc21` (stereo not shown) [compound 11, 3-Chloro-N-(1-hydroxy-3-methyl-1,3-dihydro-benzo[c][1,2]oxaborol-6-yl)-benzamide]: the “Selectivity Index (L929 IC50 / T. b. brucei IC50)” value in data set [1] is listed as 168. Moreover, the results for the IC50 in data set [1] (read-out: T. b. brucei IC50) and in data set [1] (read-out: T.b. brucei IC50) were 119 nM and 0.036 µg/mL, respectively. Also, the IC50 at 72 h in data set [2] was determined as 6.06 µg/mL (≈ 20.1 µM).

In the case of `CC1OB(O)c2cc(NC(=O)c3ccccc3I)ccc21` (stereo not shown) [compound 15, N-(1-Hydroxy-3-methyl-1,3-dihydro-benzo[c][1,2]oxaborol-6-yl)-2-iodo-benzamide], the “Selectivity Index (L929 IC50 / T. b. brucei IC50)” value in data set [1] is reported as 36. For the same compound, the IC50 in data set [1] (read-out: T. b. brucei IC50) turned out to be 173 nM; in data set [1] (read-out: T.b. brucei IC50), 0.068 µg/mL. Besides, the IC50 at 72 h in data set [2] amounted to 2.45 µg/mL (≈ 6.23 µM).

For `CC1OB(O)c2cc(NC(=O)c3ccc(F)cc3Br)ccc21` (stereo not shown) [compound 16, 2-Bromo-4-fluoro-N-(1-hydroxy-3-methyl-1,3-dihydro-benzo[c][1,2]oxaborol-6-yl)-benzamide], the “Selectivity Index (L929 IC50 / T. b. brucei IC50)” value in data set [1] stood at 29. In addition, the figures for the IC50 in data set [1] (read-out: T. b. brucei IC50) and in data set [1] (read-out: T.b. brucei IC50) were 294 nM and 0.107 µg/mL, respectively. Moreover, in data set [2], the IC50 at 72 h came out at 3.06 µg/mL (≈ 8.41 µM).

Consider `O=C(Nc1ccc2c(c1)B(O)OC2C1CCCC1)c1ccccc1Cl` (stereo not shown) [compound 18, 2-Chloro-N-(3-cyclopentyl-1-hydroxy-1,3-dihydro-benzo[c][1,2]oxaborol-6-yl)-benzamide], for which the “Selectivity Index (L929 IC50 / T. b. brucei IC50)” value in data set [1] is listed as 2. For the same compound, the IC50 in data set [1] (read-out: T. b. brucei IC50) amounted to 11900 nM; in data set [1] (read-out: T.b. brucei IC50) it was 4.22 µg/mL. Further, the IC50 at 72 h in data set [2] turned out to be 9.29 µg/mL (≈ 26.1 µM).

As to `O=C(Nc1ccc2c(c1)B(O)OC2C1CCCC1)c1ccc(F)cc1` (stereo not shown) [compound 20, N-(3-Cyclopentyl-1-hydroxy-1,3-dihydro-benzo[c][1,2]oxaborol-6-yl)-4-fluoro-benzamide], the IC50 in data set [1] (read-out: T. b. brucei IC50) was greater than 14500 nM; in data set [1] (read-out: T.b. brucei IC50), greater than 5 µg/mL. For the same compound, in data set [2], the IC50 at 72 h is greater than 10 µg/mL.

Regarding `CC(=O)Nc1ccc2c(c1)B(O)OC2C1CCCC1` (stereo not shown) [compound 21, N-(3-Cyclopentyl-1-hydroxy-1,3-dihydro-benzo[c][1,2]oxaborol-6-yl)-acetamide], the IC50 is greater than 19300 nM in data set [1] (read-out: T. b. brucei IC50) and greater than 5 µg/mL in data set [1] (read-out: T.b. brucei IC50). Further, the IC50 at 72 h in data set [2] was greater than 10 µg/mL.

Regarding `CC(C)CC1OB(O)c2cc(NC(=O)c3ccccc3C(F)(F)F)ccc21` (stereo not shown) [compound 22, N-(1-Hydroxy-3-isobutyl-1,3-dihydro-benzo[c][1,2]oxaborol-6-yl)-2-trifluoromethyl-benzamide], the “Selectivity Index (L929 IC50 / T. b. brucei IC50)” value in data set [1] is greater than 12. In addition, the figures for the IC50 in data set [1] (read-out: T. b. brucei IC50) and in data set [1] (read-out: T.b. brucei IC50) were 2300 nM and 0.866 µg/mL, respectively. In data set [2], the IC50 at 72 h is greater than 10 µg/mL.

For the compound `CC(C)CC1OB(O)c2cc(NC(=O)c3ccc(F)cc3)ccc21` (stereo not shown) [compound 24, 4-Fluoro-N-(1-hydroxy-3-isobutyl-1,3-dihydro-benzo[c][1,2]oxaborol-6-yl)-benzamide], the figures for the IC50 in data set [1] (read-out: T. b. brucei IC50) and in data set [1] (read-out: T.b. brucei IC50) were greater than 15300 nM and greater than 5 µg/mL, respectively. Moreover, the IC50 at 72 h in data set [2] is greater than 10 µg/mL.

In the case of `CC(C)CC1OB(O)c2cc(NC(=O)c3ccccc3Cl)ccc21` (stereo not shown) [compound 25, 2-Chloro-N-(1-hydroxy-3-isobutyl-1,3-dihydro-benzo[c][1,2]oxaborol-6-yl)-benzamide], the IC50 is greater than 14600 nM in data set [1] (read-out: T. b. brucei IC50) and greater than 5 µg/mL in data set [1] (read-out: T.b. brucei IC50). In addition, the half-maximal inhibitory concentration (IC50) at 72 h in data set [2] was greater than 10 µg/mL.
